# Assays:
# [1] = target: Amyloid-beta precursor protein (Homo sapiens) (UniProt P05067); assay: Inhibition of Cu2+-mediated aggregation of amyloid beta (1-42) (unknown origin) at 25 uM after 24 hrs by thioflavin T fluorescence-based fluorimetric method
# Acetylcholinesterase [2] = target: Acetylcholinesterase (Electrophorus electricus, UniProt O42275); assay: Inhibition of electric eel AChE using acetylthiocholine iodide as substrate after 15 mins by Ellman method
# Rattus norvegicus = organism: Rattus norvegicus; assay: Selectivity index, ratio of IC50 for rat serum BuChE to IC50 for AChE from rat cortex homogenate; format: cell-free
# [3] = Antioxidant activity assessed as AAPH scavenging activity measured as trolox equivalent at 5 uM after 15 mins by ORAC-FL method relative to control; format: physicochemical; settings: 0.25 h
# Acetylcholinesterase [4] = target: T1, Acetylcholinesterase (Rattus norvegicus, UniProt P37136); assay: Inhibition of AChE from rat cortex homogenate using acetylthiocholine iodide as substrate after 15 mins by Ellman method
# T1 sequence (P37136 whole entry): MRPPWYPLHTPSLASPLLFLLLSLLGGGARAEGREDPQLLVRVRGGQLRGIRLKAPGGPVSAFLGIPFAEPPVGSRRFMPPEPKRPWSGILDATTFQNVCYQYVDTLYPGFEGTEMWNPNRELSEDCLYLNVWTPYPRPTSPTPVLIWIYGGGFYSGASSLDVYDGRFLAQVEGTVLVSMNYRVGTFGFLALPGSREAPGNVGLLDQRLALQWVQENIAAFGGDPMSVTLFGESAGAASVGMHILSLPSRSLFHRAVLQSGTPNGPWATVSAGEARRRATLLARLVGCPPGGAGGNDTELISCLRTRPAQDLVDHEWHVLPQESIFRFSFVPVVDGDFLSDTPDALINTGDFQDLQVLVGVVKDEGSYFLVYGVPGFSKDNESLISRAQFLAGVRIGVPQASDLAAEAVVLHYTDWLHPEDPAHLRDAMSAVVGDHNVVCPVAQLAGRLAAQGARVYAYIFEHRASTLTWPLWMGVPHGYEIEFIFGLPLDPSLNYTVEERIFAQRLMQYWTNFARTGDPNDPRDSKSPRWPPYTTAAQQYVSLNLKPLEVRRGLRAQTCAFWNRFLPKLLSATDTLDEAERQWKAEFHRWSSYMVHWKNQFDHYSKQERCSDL
# [5] = target: Amyloid-beta precursor protein (Homo sapiens) (UniProt P05067); assay: Inhibition of self-mediated aggregation of amyloid beta (1-42) (unknown origin) at 25 uM after 24 hrs by thioflavin T fluorescence-based fluorimetric method
# [6] = Inhibition of rat serum BuChE using butyrylthiocholine iodide as substrate after 15 mins by Ellman method; format: cell-free
# Amyloid-beta precursor protein (Homo sapiens), sequence (P05067 whole entry): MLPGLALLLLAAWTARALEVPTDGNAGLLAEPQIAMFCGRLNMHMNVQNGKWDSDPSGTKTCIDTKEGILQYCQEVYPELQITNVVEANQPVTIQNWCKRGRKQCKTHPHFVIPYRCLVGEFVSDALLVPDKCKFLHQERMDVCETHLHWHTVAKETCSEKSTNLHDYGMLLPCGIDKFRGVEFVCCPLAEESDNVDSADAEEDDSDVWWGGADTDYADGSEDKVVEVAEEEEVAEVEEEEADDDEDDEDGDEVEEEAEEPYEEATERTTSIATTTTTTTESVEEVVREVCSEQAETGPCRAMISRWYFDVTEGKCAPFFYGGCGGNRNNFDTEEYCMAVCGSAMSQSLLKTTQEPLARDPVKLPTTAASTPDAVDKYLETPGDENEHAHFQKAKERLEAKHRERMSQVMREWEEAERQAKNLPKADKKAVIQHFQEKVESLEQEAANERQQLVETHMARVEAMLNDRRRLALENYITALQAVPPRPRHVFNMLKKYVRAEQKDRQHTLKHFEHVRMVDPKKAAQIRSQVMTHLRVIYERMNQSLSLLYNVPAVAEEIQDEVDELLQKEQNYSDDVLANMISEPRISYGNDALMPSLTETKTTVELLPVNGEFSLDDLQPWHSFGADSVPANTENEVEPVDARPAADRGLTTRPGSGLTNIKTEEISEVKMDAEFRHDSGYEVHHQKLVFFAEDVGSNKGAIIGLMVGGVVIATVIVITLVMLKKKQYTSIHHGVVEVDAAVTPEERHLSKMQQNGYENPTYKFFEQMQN
# Acetylcholinesterase (Electrophorus electricus, UniProt O42275), sequence (O42275 whole entry): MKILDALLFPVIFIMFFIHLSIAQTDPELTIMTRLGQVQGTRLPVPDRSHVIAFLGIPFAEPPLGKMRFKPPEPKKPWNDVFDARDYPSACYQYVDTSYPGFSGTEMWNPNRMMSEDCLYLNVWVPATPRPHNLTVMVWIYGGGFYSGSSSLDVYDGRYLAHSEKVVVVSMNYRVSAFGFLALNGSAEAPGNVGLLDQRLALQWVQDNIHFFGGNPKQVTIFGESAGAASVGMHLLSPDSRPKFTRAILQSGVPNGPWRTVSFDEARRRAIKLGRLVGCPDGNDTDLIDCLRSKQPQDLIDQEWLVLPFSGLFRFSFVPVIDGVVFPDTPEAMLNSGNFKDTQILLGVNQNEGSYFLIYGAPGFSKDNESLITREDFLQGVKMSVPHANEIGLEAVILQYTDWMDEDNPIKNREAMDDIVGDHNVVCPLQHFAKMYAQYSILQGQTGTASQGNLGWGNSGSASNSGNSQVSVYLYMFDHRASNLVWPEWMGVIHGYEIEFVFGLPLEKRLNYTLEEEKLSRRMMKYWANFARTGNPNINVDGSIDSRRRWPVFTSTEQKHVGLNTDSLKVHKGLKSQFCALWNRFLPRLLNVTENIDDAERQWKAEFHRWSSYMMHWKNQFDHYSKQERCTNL
Compound,inhibition [1] [%],IC50 (Acetylcholinesterase [2]; read-out: IC50) [µM],Ratio IC50 (Rattus norvegicus),fold change (FC) [3],IC50 (Acetylcholinesterase [4]) [µM],inhibition [5] [%],IC50 [6] [µM],IC50 (Acetylcholinesterase [2])
CCN(CCCNC(=O)c1cc(=O)c2c(O)cc(O)cc2o1)Cc1ccccc1OC,18.1,49.7,> 29.2,2.1,6.85,35.1,> 200,
COc1cc(O)c2c(=O)cc(C(=O)NCCCN(C)Cc3ccccc3OC)oc2c1,28.7,9.8,42.5,0.93,4.01,43.6,171,
CCN(CCCCNC(=O)c1cc(=O)c2c(O)cc(N(C)C)cc2o1)Cc1ccccc1OC,36.9,4.02,120,1.05,0.91,41.1,109,
CCN(CCCCCCNC(=O)c1cc(=O)c2c(O)cc(OC)cc2o1)Cc1ccccc1OC,52,0.56,217,0.76,0.23,58.2,49.9,
COc1cc(O)c2c(=O)cc(C(=O)NCCCCN(C)Cc3ccccc3OC)oc2c1,36.3,3.5,28.3,0.55,2.9,47.5,82.1,
CCN(CCCNC(=O)c1cc(=O)c2c(O)cccc2o1)Cc1ccccc1OC,35.2,13.9,228,1.13,0.41,48.7,93.4,
CCN(CCCCCCNC(=O)c1cc(=O)c2c(O)cccc2o1)Cc1ccccc1OC,55.6,0.53,122,0.87,0.19,63,23.2,
COc1ccccc1CN(C)CCCCNC(=O)c1cc(=O)c2c(O)cccc2o1,24.1,3.29,40.1,0.81,1.37,49.3,55,
O=C(O)c1cc(=O)c2c(O)cc(O)cc2o1,,> 200,,2.01,> 200,,> 200,
CN(CCCNC(=O)c1cc(=O)c2c(O)cccc2o1)Cc1ccccc1,25.8,24.4,6.1,0.85,19.6,43.9,120,
CCN(CCCNC(=O)c1cc(=O)c2c(O)cc(OC)cc2o1)Cc1ccccc1,31.5,11.2,10.5,0.66,7.94,21.1,83.5,
CCOC(=O)c1cc(=O)c2c(O)cccc2o1,,> 200,,0.78,> 200,,> 200,
COc1cc(/C=C/C(=O)CC(=O)/C=C/c2ccc(O)c(OC)c2)ccc1O,58,,,,,,,
CCN(CCCNC(=O)c1cc(=O)c2c(O)cc(OC)cc2o1)Cc1ccccc1OC,27.2,1.85,224,0.54,0.88,47.9,197,
CCN(CCCCCCNC(=O)c1cc(=O)c2c(O)cc(OC)cc2o1)Cc1ccccc1,42.6,1.38,31.5,0.65,1.7,28.6,53.5,
COc1ccccc1CN(C)CCCNC(=O)c1cc(=O)c2c(O)cccc2o1,23.8,,10.7,1.64,9.51,50.6,102,Not Active
COc1cc(O)c2c(=O)cc(C(=O)NCCCCN(C)Cc3ccccc3)oc2c1,35.3,5.86,17.9,0.79,7.5,24.4,135,
COc1cc2c(cc1OC)C(=O)C(CC1CCN(Cc3ccccc3)CC1)C2 (centres undefined) [DONEPEZIL],,,,,,,20.7,
CCN(CCCCNC(=O)c1cc(=O)c2c(O)cc(N(C)C)cc2o1)Cc1ccccc1N(C)C,30.7,3.53,107,1.34,1.39,40.8,149,
CN(C)c1cc(O)c2c(=O)cc(C(=O)O)oc2c1,,> 200,,0.95,> 200,,> 200,
COc1cc(O)c2c(=O)cc(C(=O)NCCCCCCN(C)Cc3ccccc3OC)oc2c1,48.1,0.58,27.2,1.3,1.59,43.9,43.3,
COc1cc(O)c2c(=O)cc(C(=O)O)oc2c1,,> 200,,0.87,> 200,,> 200,
CCN(CCCCNC(=O)c1cc(=O)c2c(O)cc(O)cc2o1)Cc1ccccc1OC,32.1,36.2,127,2.3,1.11,37.8,141,
CCN(CCCCNC(=O)c1cc(=O)c2c(O)cc(OC)cc2o1)Cc1ccccc1OC,38.9,1.16,262,0.62,0.33,51,86.5,
CCN(CCCCNC(=O)c1cc(=O)c2c(O)cc(OC)cc2o1)Cc1ccc(N(C)C)cc1,28.8,9.05,7.7,2.2,7.45,37.1,57.5,
C#CCN(CCCCNC(=O)c1cc(=O)c2c(O)cc(OC)cc2o1)Cc1ccccc1OC,21.5,73,4.2,0.56,13.6,22.4,57.3,
COc1cc(O)c2c(=O)cc(C(=O)NCCCCN3CCOc4ccccc4C3)oc2c1,35,> 200,,0.68,> 200,40.9,> 200,
